According to US5128244A, “Assay for dioxins” (Wisconsin Alumni Research Foundation, priority 1989, dated 1992):

Assays:
Ah receptor [1] = molecular target: T1, Ah receptor (Mus musculus, UniProt P30561); test: Radioligand stock solution aged 120 days, tested in the Ah receptor binding assay; parameters: species or system C57BL/6J mice; conditions: stock solution of radioligand 120 days after its synthesis
T1 construct: full-length receptor (C57BL/6J carries Ahr b-1 allele)
T1 sequence (P30561 10-848): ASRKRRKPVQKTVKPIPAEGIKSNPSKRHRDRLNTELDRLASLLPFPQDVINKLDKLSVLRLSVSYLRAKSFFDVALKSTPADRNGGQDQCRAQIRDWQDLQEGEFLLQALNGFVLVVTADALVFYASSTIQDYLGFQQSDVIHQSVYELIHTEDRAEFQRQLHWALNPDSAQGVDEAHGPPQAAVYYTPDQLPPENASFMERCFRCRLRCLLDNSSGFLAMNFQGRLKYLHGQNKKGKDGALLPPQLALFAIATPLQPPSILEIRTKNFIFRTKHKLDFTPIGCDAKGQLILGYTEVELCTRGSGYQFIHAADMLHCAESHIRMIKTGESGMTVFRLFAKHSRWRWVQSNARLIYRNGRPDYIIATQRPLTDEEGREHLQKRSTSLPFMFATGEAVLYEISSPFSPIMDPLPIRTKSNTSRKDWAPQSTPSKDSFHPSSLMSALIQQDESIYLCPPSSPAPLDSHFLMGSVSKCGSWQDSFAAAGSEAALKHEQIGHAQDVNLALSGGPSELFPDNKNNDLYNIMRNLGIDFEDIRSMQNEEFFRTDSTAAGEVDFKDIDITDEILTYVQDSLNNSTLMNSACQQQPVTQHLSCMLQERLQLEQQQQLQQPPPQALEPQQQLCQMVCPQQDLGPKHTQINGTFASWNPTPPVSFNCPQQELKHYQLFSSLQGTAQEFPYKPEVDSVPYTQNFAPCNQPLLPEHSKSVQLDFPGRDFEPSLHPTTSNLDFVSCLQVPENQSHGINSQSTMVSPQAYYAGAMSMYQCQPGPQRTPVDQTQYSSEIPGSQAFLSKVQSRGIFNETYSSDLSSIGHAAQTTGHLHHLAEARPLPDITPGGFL
Text: [^125 I]decays to tellurium with a half-life of 60 days. Thus, radiodecay could produce unlabelled 2,3-dibromodibenzo-p-dioxin in the radioligand stock solution. We tested whether radioligand decay products might compete for receptor binding and diminish radioligand binding.

Ah receptor [2] = molecular target: T1, Ah receptor; test: Competitive binding assay of TCDD against [125I] radioligand for Ah receptor; parameters: species or system C57BL/6J mice
Method: C57BL/6J mice were purchased from The Jackson Laboratory, Bar Harbor, Me., and bred in our laboratory. See generally A. Poland et al., 261 J. Biol. Chem. 6352-65 (May 15, 1986) (not prior art). One-hundred adult male and female mice were killed by cervical dislocation, their livers removed, rinsed with ice cold KCl (150 mM), homogenized in 9 vol of MSSENG buffer, and centrifuged at 10,000 xg for 20 min at 4° C. The post-mitochondrial supernatant was carefully removed to avoid contamination by the surface lipid layer, and subjected to centrifugation at 105,000 x g. The supernatant (approx. 10 mg protein/ml) was separated from surface lipids and the microsomal pellet, and stored at -80° C. until processed further.
The frozen cytosolic fraction was thawed, and placed in an ice bath with slow stirring. A saturated solution of ammonium sulfate in MEN buffer was added to the cytosolic preparation, to a final concentration of 40%, over a period of 30 min, and stirred for an additional 30 min. The solution was centrifuged at 10,000 x g for 20 min, the supernatant fraction removed, slowly brought to an ammonium sulfate concentration of 55%, stirred for an additional 30 min, centrifuged at 10,000xg, and the supernatant discarded. The 40-55% ammonium sulfate precipitate was resuspended in 55% ammonium sulfate in MN, and aliquots equivalent to 0.5 g wet weight of liver (15 mg protein) were placed in 12×75 mm borosilicate tubes (VWR Scientific, San Francisco, Calif.), and spun at 5000xg. […]
The assay was terminated by the addition of a 0.5 ml of suspension of charcoal/gelatin (3%/0.3%) in MN buffer with vigorous stirring on a vortex mixer for 3 sec., and incubated for 10 min at 4° C. […] A one ml aliquot of the supernatant fraction of each tube was transferred to 12×75 […] polypropylene tubes (VWR Scientific, San Francisco, CA), and the Ah bound radioligand quantified in a MINAXI Series-5000 gamma scintillation counter (United Technologies/Packard Instrument Co., Downer Grove, Ill.). […]

## Brc1cc2c(cc1Br)Oc1cc([125I])ccc1O2 [radioligand, [^125 I]-2-iodo-7,8-dibromo-dibenzo-p-dioxin]
Ah receptor [1]
  deviation in the quality control parameters compared to freshly prepared radioligand: no significant deviation

## Clc1cc2c(cc1Cl)Oc1cc(Cl)c(Cl)cc1O2 [TCDD, 2,3,7,8-tetrachloro-dibenzo-p-dioxin]
Ah receptor [2]; 1 ml assay
  minimal detectable amount of TCDD: 3.2 pg
Ah receptor [2]; 1 ml assay, statistical analysis of standard curve of specifically bound radioligand v. log concentration of competing TCDD
  minimal detectable concentration of TCDD: 10 pM
Ah receptor [2]; total assay volume reduced to 0.25 ml
  minimal detectable amount of TCDD: 0.8 pg
